Experimental data: patent US20120101167A1, “Treatment of ocular and cerebral ischemia” (priority 2010, published 2012)

Tests used:
[1] = system: glaucoma patients; assay: IOP, pulsatile blood flow, visual performance, relative scotomas and stability of differential light sensitivity in glaucoma patients under long-term topical treatment; format: in vivo, human
Source text: Elevated IOP is a risk factor associated with the development of glaucoma but it is not the disease itself. The recent recognition that a large percentage of glaucoma patients never experience elevated IOP has increased the possibility that the ocular hypotensive drug has the undesirable action of decreasing ocular blood flow. This possibility has been supported by numerous studies and confirmed in the prolonged longitudinal studies on individual glaucoma patents (Table 1). With increased ocular blood flow, the vision improved whilst with a drug having equal ocular hypotensive action, but causing decreased ocular blood flow run vision worsened. […] The Intraocular pressure and pulse form. The […] pneumatic digitized tonometer was used to make continuous recordings of the intraocular pressure and its pulsatile character. This recording system provides the steady state IOP and the form of the IOP pulse with an accuracy equal to a manometric recording. The pulsatile ocular blood flow is evaluated from the amplitude of the individual pulses using the known pressure/volume relation of living human eyes. […]'Brien V., Silver, D. M., Non-Invasive Measurement of Pulsatile Ocular Blood Flow in the Human […] and […], Amsterdam (1989).

[2] = system: conscious rabbits; assay: Time course of IOP and ocular pulsatile blood flow in conscious rabbits after single topical application; format: in vivo, rabbit; details: six conscious rabbits; for Intraocular Pressure (IOP), Treated / Pulsatile Blood flow, Treated: treated eye, single topical 0.025% aqueous solution pH 7.40; for Intraocular Pressure (IOP), Difference / Pulsatile Blood flow, Difference: treated minus control eye, single topical 0.025% solution
Procedure: (§1) 1. The Intraocular pressure and pulse form. The Langham pneumatic digitized tonometer was used to make continuous recordings of the intraocular pressure and its pulsatile character. This recording system provides the steady state IOP and the form of the IOP pulse with an accuracy equal to a manometric recording. The pulsatile ocular blood flow is evaluated from the amplitude of the individual pulses using the known pressure/volume relation of living human eyes. Langham, M. E., Farrell, R. A., O'Brien V., Silver, D. M., Non-Invasive Measurement of Pulsatile Ocular Blood Flow in the Human Eye (Eds., Lambrou G. N., Greve E.) pp. 93-99; Kugler and Ghedini, Amsterdam (1989).

[3] = system: healthy human subjects; assay: Steady state IOP and pulsatile blood flow in healthy human subjects given repeated topical unilateral applications; format: in vivo; details: five healthy human subjects; for Intraocular Pressure (IOP), Treated / Pulsatile Blood flow, Treated: treated eye, 30 μl 0.025% solution topical unilateral at 0, 12, ... 96 hr; for Intraocular Pressure (IOP), Difference / Pulsatile Blood flow, Difference: treated minus control eye, 0.025% solution every 12 hr
Procedure: as §1

[4] = system: glaucomatous monkeys; assay: IOP and PBF responses in glaucomatous monkeys to a single topical unilateral application; format: in vivo, monkey; details: single topical unilateral 0.05 mg, four glaucomatous monkeys
Procedure: as §1

[5] = difference timolol treatment minus prior, five glaucoma patients
[6] = five glaucoma patients, topical timolol 0.25-0.50% b.i.d., years 3, 4 and 5
[7] = difference clonidine treatment minus timolol treatment, five glaucoma patients
[8] = five glaucoma patients, topical 0.25% clonidine b.i.d., years 6, 7 and 8 (after timolol)

## CC(C)(C)NC[C@H](O)COc1nsnc1N1CCOCC1 [Timolol, timolol]
[1]; [5]
  IOP, Tim-Prior: −3.1 ± 0.6 mmHg
  PBF, Tim-Prior: -177 ± 33 µL/min
  Vis. P. (visual performance), Tim-Prior: −116 ± 2
[1]; [6]
  IOP: 20.8 ± 0.6 mmHg
  PBF: 365 ± 20 µL/min
  Rel. Scot (relative scotomas): 3
  Vis. P. (visual performance): 533 ± 20
[1]; number of the five glaucoma patients, timolol treatment versus prior
  Stability of the differential light sensitivity, Tim-Prior: 5 decreased
[1]; number of the five glaucoma patients, topical timolol 0.25-0.50% b.i.d., years 3, 4 and 5
  Stability of the differential light sensitivity: 5 decreased

## CN[C@@H](C)[C@H](O)c1ccc(OC(=O)C(C)(C)C)c(OC(=O)C(C)(C)C)c1 (single isomer, unassigned) [(−) erythro isomer of DPαMeEp, dipivalyl α MeEp]
[2]; 0 hr
  Intraocular Pressure (IOP), Treated: 19.4 ± 0.7 mmHg
  Pulsatile Blood flow, Treated: 651 ± 28 µL/min
  Intraocular Pressure (IOP), Difference: −0.1 ± 0.1 mmHg
  Pulsatile Blood flow, Difference: 3 ± 3 µL/min
[2]; 1 hr
  Intraocular Pressure (IOP), Treated: 13.0 ± 0.5 mmHg
  Pulsatile Blood flow, Treated: 880 ± 32 µL/min
  Intraocular Pressure (IOP), Difference: −6.4 ± 0.3 mmHg
  Pulsatile Blood flow, Difference: 255 ± 24 µL/min
[2]; 3 hr
  Intraocular Pressure (IOP), Treated: 12.8 ± 0.4 mmHg
  Pulsatile Blood flow, Treated: 957 ± 33 µL/min
  Intraocular Pressure (IOP), Difference: −6.5 ± 0.4 mmHg
  Pulsatile Blood flow, Difference: 332 ± 29 µL/min
[2]; 5 hr
  Intraocular Pressure (IOP), Treated: 13.8 ± 0.4 mmHg
  Pulsatile Blood flow, Treated: 963 ± 30 µL/min
  Intraocular Pressure (IOP), Difference: −5.3 ± 0.4 mmHg
  Pulsatile Blood flow, Difference: 328 ± 24 µL/min
[2]; 12 hr
  Intraocular Pressure (IOP), Treated: 15.6 ± 0.6 mmHg
  Pulsatile Blood flow, Treated: 924 ± 29 µL/min
  Intraocular Pressure (IOP), Difference: −3.9 ± 0.3 mmHg
  Pulsatile Blood flow, Difference: 290 ± 31 µL/min
[2]; 24 hr
  Intraocular Pressure (IOP), Treated: 19.7 ± 0.7 mmHg
  Pulsatile Blood flow, Treated: 682 ± 41 µL/min
  Intraocular Pressure (IOP), Difference: 0 ± 0 mmHg
  Pulsatile Blood flow, Difference: 10 ± 4 µL/min
[3]; 0 hr
  Intraocular Pressure (IOP), Treated: 15.5 ± 0.5 mmHg
  Pulsatile Blood flow, Treated: 675 ± 35 µL/min
  Intraocular Pressure (IOP), Difference: 0 ± 0.1 mmHg
  Pulsatile Blood flow, Difference: 4 ± 6 µL/min
[3]; 2 hr
  Intraocular Pressure (IOP), Treated: 12.0 ± 0.7 mmHg
  Pulsatile Blood flow, Treated: 818 ± 30 µL/min
  Intraocular Pressure (IOP), Difference: −3.4 ± 3.4 mmHg
  Pulsatile Blood flow, Difference: 127 ± 27 µL/min
[3]; 6 hr
  Intraocular Pressure (IOP), Treated: 13.2 ± 9.2 mmHg
  Pulsatile Blood flow, Treated: 802 ± 17 µL/min
  Intraocular Pressure (IOP), Difference: −2.6 ± 2.6 mmHg
  Pulsatile Blood flow, Difference: 131 ± 14 µL/min
[3]; 12 hr
  Intraocular Pressure (IOP), Treated: 14.0 ± 0.4 mmHg
  Pulsatile Blood flow, Treated: 780 ± 15 µL/min
  Intraocular Pressure (IOP), Difference: −1.8 ± 1.1 mmHg
  Pulsatile Blood flow, Difference: 104 ± 12 µL/min
[3]; 24 hr
  Intraocular Pressure (IOP), Treated: 15.0 ± 0.4 mmHg
  Pulsatile Blood flow, Treated: 758 ± 30 µL/min
  Intraocular Pressure (IOP), Difference: −0.6 ± 0.3 mmHg
  Pulsatile Blood flow, Difference: 82 ± 7 µL/min
[3]; 28 hr
  Intraocular Pressure (IOP), Treated: 12.4 ± 0.5 mmHg
  Pulsatile Blood flow, Treated: 790 ± 34 µL/min
  Intraocular Pressure (IOP), Difference: 2.9 ± 0.4 mmHg
  Pulsatile Blood flow, Difference: 132 ± 19 µL/min
[3]; 52 hr
  Intraocular Pressure (IOP), Treated: 12.8 ± 0.4 mmHg
  Pulsatile Blood flow, Treated: 764 ± 14 µL/min
  Intraocular Pressure (IOP), Difference: −2.7 ± 0.6 mmHg
  Pulsatile Blood flow, Difference: 110 ± 24 µL/min
[3]; 78 hr
  Intraocular Pressure (IOP), Treated: 11.8 ± 0.5 mmHg
  Pulsatile Blood flow, Treated: 832 ± 24 µL/min
  Intraocular Pressure (IOP), Difference: −3.7 ± 0.4 mmHg
  Pulsatile Blood flow, Difference: 156 ± 8 µL/min
[3]; 100 hr
  Intraocular Pressure (IOP), Treated: 12.7 ± 0.4 mmHg
  Pulsatile Blood flow, Treated: 812 ± 15 µL/min
  Intraocular Pressure (IOP), Difference: 3.3 ± 0.4 mmHg
  Pulsatile Blood flow, Difference: 138 ± 8.5 µL/min
[4]; Table 4, treated glaucomatous eye, 0 hr
  Intraocular Pressure (IOP), Treated: 33.4 ± 1.94 mmHg
[4]; Table 4, treated glaucomatous eye, 1 hr
  Intraocular Pressure (IOP), Treated: 26.3 ± 3.17 mmHg
[4]; Table 4, treated glaucomatous eye, 3 hr
  Intraocular Pressure (IOP), Treated: 21.7 ± 3.77 mmHg
[4]; Table 4, treated glaucomatous eye, 8 hr
  Intraocular Pressure (IOP), Treated: 21.9 ± 3.31 mmHg
[4]; Table 4, treated glaucomatous eye, 10 hr
  Intraocular Pressure (IOP), Treated: 22.1 ± 2.76 mmHg
[4]; Table 4, treated glaucomatous eye, 12 hr
  Intraocular Pressure (IOP), Treated: 21.8 ± 2.61 mmHg
[4]; Table 4, treated glaucomatous eye, 24 hr
  Intraocular Pressure (IOP), Treated: 24.6 ± 2.37 mmHg
[4]; Table 4, treated glaucomatous eye, 26 hr
  Intraocular Pressure (IOP), Treated: 26.3 ± 2.16 mmHg
[4]; Table 4, treated glaucomatous eye, 28 hr
  Intraocular Pressure (IOP), Treated: 25.0 ± 2.09 mmHg
[4]; Table 4, treated glaucomatous eye, 30 hr
  Intraocular Pressure (IOP), Treated: 25.0 ± 2.28 mmHg
[4]; Table 4, treated glaucomatous eye, 36 hr
  Intraocular Pressure (IOP), Treated: 27.3 ± 2.09 mmHg

## Clc1cccc(Cl)c1N=C1NCCN1 [Clonidine, clonidine]
[1]; [7]
  IOP, Clon-Timolol: −0.8 ± 0.5 mmHg
  PBF, Clon-Timolol: 192 ± 71 µL/min
  Vis. P. (visual performance), Clon-Timolol: 31 ± 9
[1]; [8]
  IOP: 20.0 ± 1.0 mmHg
  PBF: 557 ± 30 µL/min
  Rel. Scot (relative scotomas): 3
  Vis. P. (visual performance): 564 ± 30
[1]; number of the five glaucoma patients, clonidine treatment versus timolol treatment
  Stability of the differential light sensitivity, Clon-Timolol: 5 improved
[1]; number of the five glaucoma patients, topical 0.25% clonidine b.i.d., years 6, 7 and 8
  Stability of the differential light sensitivity: 5 improved

## CN[C@H](C)[C@@H](O)c1ccc(OC(=O)C(C)(C)C)c(OC(=O)C(C)(C)C)c1 (single isomer, unassigned) [(+) erythro isomer of DPαMeEp, reference compound]
[4]; Table 5, treated eye, 0 hr
  Intraocular Pressure (IOP), Treated: 36.8 ± 1.94 mmHg
  Pulsatile Blood flow, Treated: 564 ± 16 µL/min
[4]; Table 5, treated eye, 1 hr
  Intraocular Pressure (IOP), Treated: 36.3 ± 3.17 mmHg
  Pulsatile Blood flow, Treated: 555 ± 26 µL/min
[4]; Table 5, treated eye, 3 hr
  Intraocular Pressure (IOP), Treated: 35.0 ± 2.28 mmHg
  Pulsatile Blood flow, Treated: 575 ± 22 µL/min
[4]; Table 5, treated eye, 6 hr
  Intraocular Pressure (IOP), Treated: 36.8 ± 3.31 mmHg
  Pulsatile Blood flow, Treated: 564 ± 23 µL/min
[4]; Table 5, treated eye, 24 hr
  Intraocular Pressure (IOP), Treated: 34.6 ± 2.76 mmHg
  Pulsatile Blood flow, Treated: 549 ± 27 µL/min
